The supplement of paper PMC8092582
Structures can show the parent of a compound that is named as a salt. ± gives the standard deviation of the averaged measurements.

Test system: HeLa
Experiment: cell viability (CellTiter-Glo) relative to median of lowest-dilution wells of all drugs (fraction); higher = more viable cells
Procedure: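 HeLa control and CRISPR DDX11 knockout cells were seeded in 384-well plates and incubated for 72 h with each of 64 […] drugs at six concentrations. Viability was read with CellTiter-Glo and normalised to the median of the lowest (6th) dilution wells of all drugs. Two biological replicates (BR1, BR2) are averaged; the concentration unit is not stated.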

[1] = drug concentration (unit not stated): 0.01, genotype: DDX11 knockout
[2] = drug concentration (unit not stated): 0.01, genotype: control (DDX11 wild type)
[3] = drug concentration (unit not stated): 0.04, genotype: DDX11 knockout
[4] = drug concentration (unit not stated): 0.04, genotype: control (DDX11 wild type)
[5] = drug concentration (unit not stated): 0.12, genotype: DDX11 knockout
[6] = drug concentration (unit not stated): 0.12, genotype: control (DDX11 wild type)
[7] = drug concentration (unit not stated): 0.37, genotype: DDX11 knockout
[8] = drug concentration (unit not stated): 0.37, genotype: control (DDX11 wild type)
[9] = drug concentration (unit not stated): 1.11, genotype: DDX11 knockout
[10] = drug concentration (unit not stated): 1.11, genotype: control (DDX11 wild type)
[11] = drug concentration (unit not stated): 3.33, genotype: DDX11 knockout
[12] = drug concentration (unit not stated): 3.33, genotype: control (DDX11 wild type)
[13] = drug concentration (unit not stated): 10, genotype: DDX11 knockout
[14] = drug concentration (unit not stated): 10, genotype: control (DDX11 wild type)

Row | Compound | cell viability [1] | cell viability [2] | cell viability [3] | cell viability [4] | cell viability [5] | cell viability [6] | cell viability [7] | cell viability [8] | cell viability [9] | cell viability [10] | cell viability [11] | cell viability [12] | cell viability [13] | cell viability [14] | cell viability (drug concentration (unit not stated): 30, genotype: DDX11 knockout) | cell viability (drug concentration (unit not stated): 30, genotype: control (DDX11 wild type))
1 | O=C1c2c(O)ccc(O)c2C(=O)c2c(NCCNCCO)ccc(NCCNCCO)c21 [Mitoxantrone Hydrochloride] | 0.834 ± 0.17 | 0.952 ± 0.011 | 0.556 ± 0.33 | 0.88 ± 0.18 | 0.292 ± 0.31 | 0.858 ± 0.57 | 0.124 ± 0.13 | 0.583 ± 0.73 | 0.0246 ± 0.0088 | 0.312 ± 0.42 |  |  |  |  |  | 
2 | O=c1cc(N2CCOCC2)oc2c(-c3cccc4c3sc3ccccc34)cccc12 [NU7441] |  |  | 0.982 ± 0.06 | 0.9779 ± 0.0026 | 0.953 ± 0.032 | 0.963 ± 0.011 | 1.02 ± 0.073 | 0.9893 ± 0.0052 | 0.972 ± 0.013 | 1.019 ± 0.0044 | 0.918 ± 0.066 | 0.992 ± 0.14 | 0.834 ± 0.15 | 0.935 ± 0.37 |  | 
3 | COc1ccc(C2=N[C@@H](c3ccc(Cl)cc3)[C@@H](c3ccc(Cl)cc3)N2C(=O)N2CCNC(=O)C2)c(OC(C)C)c1 [Nutlin-3] |  |  | 0.977 ± 0.022 | 0.944 ± 0.013 | 0.981 ± 0.057 | 0.9784 ± 0.0054 | 0.983 ± 0.047 | 1.029 ± 0.0079 | 0.9903 ± 0.0028 | 0.956 ± 0.0068 | 0.965 ± 0.026 | 1.035 ± 0.0094 | 0.9631 ± 0.0059 | 1.06 ± 0.096 |  | 
4 | COC1=CC(c2cc3ccccc3[nH]2)=N/C1=C\c1[nH]c(C)cc1C [Obatoclax mesylate] |  |  | 1.07 ± 0.017 | 1.01 ± 0.056 | 0.872 ± 0.087 | 1.05 ± 0.19 | 0.56 ± 0.044 | 0.728 ± 0.13 | 0.307 ± 0.026 | 0.415 ± 0.13 | 0.25 ± 0.017 | 0.344 ± 0.14 | 0.141 ± 0.062 | 0.0791 ± 0.041 |  | 
5 | O=C(c1cc(Cc2n[nH]c(=O)c3ccccc23)ccc1F)N1CCN(C(=O)C2CC2)CC1 [Olaparib] |  |  | 1.072 ± 0.0052 | 1.02 ± 0.032 | 1.02 ± 0.024 | 1.04 ± 0.043 | 0.953 ± 0.063 | 0.959 ± 0.036 | 0.954 ± 0.037 | 0.967 ± 0.035 | 0.796 ± 0.076 | 0.987 ± 0.011 | 0.677 ± 0.083 | 1.01 ± 0.066 |  | 
6 | CC(=O)O[C@H]1C(=O)[C@@]2(C)[C@H]([C@H](OC(=O)c3ccccc3)[C@]3(O)C[C@H](OC(=O)[C@H](O)[C@@H](NC(=O)c4ccccc4)c4ccccc4)C(C)=C1C3(C)C)[C@]1(OC(C)=O)CO[C@@H]1C[C@@H]2O [Paclitaxel (Taxol)] | 0.44 ± 0.12 | 0.515 ± 0.11 | 0.26 ± 0.017 | 0.379 ± 0.11 | 0.203 ± 0.0074 | 0.148 ± 0.021 | 0.2001 ± 0.00037 | 0.169 ± 0.016 | 0.197 ± 0.031 | 0.2 ± 0.042 | 0.179 ± 0.033 | 0.139 ± 0.0065 |  |  |  | 
7 | CC(=O)c1c(C)c2cnc(Nc3ccc(N4CCNCC4)cn3)nc2n(C2CCCC2)c1=O [Palbociclib] |  |  |  |  | 1.02 ± 0.084 | 1.017 ± 0.00052 | 1.0721 ± 0.001 | 1.01 ± 0.017 | 1.009 ± 0.0063 | 1.02 ± 0.025 | 1.03 ± 0.054 | 1.01 ± 0.022 | 0.9 ± 0.0099 | 0.986 ± 0.11 | 0.658 ± 0.045 | 0.893 ± 0.26
8 | Nc1nc2[nH]cc(CCc3ccc(C(=O)N[C@@H](CCC(=O)O)C(=O)O)cc3)c2c(=O)[nH]1 [Pemetrexed] | 1 ± 0.099 | 0.99 ± 0.11 | 0.983 ± 0.29 | 0.903 ± 0.41 | 0.911 ± 0.26 | 0.98 ± 0.53 | 0.781 ± 0.21 | 0.814 ± 0.4 | 0.741 ± 0.18 | 0.756 ± 0.34 |  |  |  |  |  | 
